Here are results for 1 compound from patent US9221796B2, “Selective NR2B antagonists” (BRISTOL-MYERS SQUIBB COMPANY, priority 2014, dated 2015).

Structures are written as SMILES.

The assay has as its system mice. Briefly: Mouse Forced Swim Test (mFST). It is filed as in vivo. The settings on record: 1 mg/Kg i.v., 15 min before swim session, 6 min test. As for the experimental part:
Mouse Forced Swim Test (mFST).
Forced Swim Test (FST) is an animal model used to assess antidepressant compounds in preclinical studies. The FST was performed similar to the method of Porsolt et al. with modifications (Porsolt R D, Bertin A, Jalfre M. Behavioral despair in mice: a primary screening test for antidepressants. Arch Int Pharmacodyn Thér 1977; 229:327-36). In this paradigm, mice are forced to swim in an inescapable cylinder filled with water. Under these conditions, mice will initially try to escape and eventually develop immobility behavior; this behavior is interpreted as a passive stress-coping strategy or depression-like behavior. […] The duration of immobility was evaluated during the total 6 min of the test and expressed as duration (sec) of immobility. […] All testing sessions were recorded with a video camera (Sony Handicam, Model: DCR—HC38E; PAL) and scoring was done using the Forced Swim Scan, Version 2.0 software (Clever Systems Inc., Reston, Va., USA; see Hayashi E, Shimamura M, Kuratani K, Kinoshita M, Hara H. Automated experimental system capturing three behavioral components during murine forced swim test. Life Sci. 2011 Feb. 28; 88(9-10):411-7 and Yuan P, Tragon T, Xia M, Leclair C A, Skoumbourdis A P, Zheng W, Thomas C J, Huang R, Austin C P, Chen G, Guitart X. Phosphodiesterase 4 inhibitors enhance […] in rodents. […]

As to `Cc1ccc(CN2CC[C@@H](N3CC[C@@H](c4ccc(O)cc4)[C@H](F)C3)C2=O)cc1` [Example 46, P-4, (R)-3-((3S,4S)-3-fluoro-4-(4-hydroxyphenyl)piperidin-1-yl)-1-(4-methylbenzyl)pyrrolidin-2-one], the immobility time entry is reported as “statistically significant decrease in immobility time”.
